Experimental data: the NIST ThermoML archive (doi:10.1021/je0501991)
Numbers after ± are expanded uncertainties. Blank lines part the entries; values can stand above or below the compound they belong to.

Key:
[1] = 101.33 kPa, Liquid
[2] = refractive index (Na D-line) (dimensionless); conditions: 101.33 kPa, Liquid, Standard Abbe refractometry
[3] = molar heat capacity at constant pressure; xn = mol fraction of the nth substance listed; conditions: Liquid, x1 = 1

SMILES: C[S+](C)[O-] [dimethyl sulfoxide]
- viscosity ([1]; 298.15 K, Capillary tube (Ostwald / Ubbelohde) method): 1.989 ± 0.023 mPa·s
- mass density ([1]; 298.15 K, Vibrating tube method): 1095.68 ± 0.09 kg/m3
- viscosity ([1]; 308.15 K, Capillary tube (Ostwald / Ubbelohde) method): 1.645 ± 0.019 mPa·s
- mass density ([1]; 308.15 K, Vibrating tube method): 1085.31 ± 0.09 kg/m3
- refractive index ([2]; 298.15 K): 1.4775 ± 0.0004
- refractive index ([2]; 308.15 K): 1.473 ± 0.0004

SMILES: OCc1ccccc1 [benzenemethanol]
- mass density ([1]; 298.15 K): 1041.65 ± 0.27 kg/m3
- viscosity ([1]; 298.15 K): 5.211 ± 0.076 mPa·s
- mass density ([1]; 308.15 K): 1033.66 ± 0.25 kg/m3
- viscosity ([1]; 308.15 K): 4.125 ± 0.062 mPa·s
- refractive index ([2]; 298.15 K): 1.5377 ± 0.0005
- refractive index ([2]; 308.15 K): 1.535 ± 0.0005

SMILES: OCCCc1ccccc1 [3-phenyl-1-propanol]
- viscosity ([1]; 298.15 K): 10.13 ± 0.17 mPa·s
- mass density ([1]; 308.15 K): 991.17 ± 0.53 kg/m3
- refractive index ([2]; 308.15 K): 1.521 ± 0.001

SMILES: OCCc1ccccc1 [2-phenylethanol]
- mass density ([1]; 308.15 K): 1008.79 ± 0.54 kg/m3
- viscosity ([1]; 308.15 K): 7.438 ± 0.12 mPa·s
- refractive index ([2]; 308.15 K): 1.5267 ± 0.0008

Continued, values first:

- molar heat capacity at constant pressure ([3]; 298.15 K, 101 kPa): 142.7 ± 11 J/K/mol
- molar heat capacity at constant pressure ([3]; 308.15 K, 101 kPa): 143.5 ± 12 J/K/mol
- molar heat capacity at constant pressure ([3]; 318.15 K, 101 kPa): 144.6 ± 12 J/K/mol
SMILES: C[S+](C)[O-] [dimethyl sulfoxide] + OCCCc1ccccc1

- molar heat capacity at constant pressure ([3]; 298.15 K, 101.33 kPa): 142.7 ± 11 J/K/mol
- molar heat capacity at constant pressure ([3]; 308.15 K, 101.33 kPa): 143.5 ± 12 J/K/mol
- molar heat capacity at constant pressure ([3]; 318.15 K, 101.33 kPa): 144.6 ± 12 J/K/mol
SMILES: C[S+](C)[O-] [dimethyl sulfoxide] + OCCc1ccccc1

- molar heat capacity at constant pressure ([3]; 298.15 K, 101.33 kPa): 142.7 ± 11 J/K/mol
- molar heat capacity at constant pressure ([3]; 308.15 K, 101.33 kPa): 143.5 ± 12 J/K/mol
- molar heat capacity at constant pressure ([3]; 318.15 K, 101.33 kPa): 144.6 ± 12 J/K/mol
SMILES: C[S+](C)[O-] [dimethyl sulfoxide] + OCc1ccccc1
